In assay [1] the target is T1, Tyrosine-protein kinase JAK3 (Homo sapiens) (UniProt P52333).
T1 sequence (whole entry): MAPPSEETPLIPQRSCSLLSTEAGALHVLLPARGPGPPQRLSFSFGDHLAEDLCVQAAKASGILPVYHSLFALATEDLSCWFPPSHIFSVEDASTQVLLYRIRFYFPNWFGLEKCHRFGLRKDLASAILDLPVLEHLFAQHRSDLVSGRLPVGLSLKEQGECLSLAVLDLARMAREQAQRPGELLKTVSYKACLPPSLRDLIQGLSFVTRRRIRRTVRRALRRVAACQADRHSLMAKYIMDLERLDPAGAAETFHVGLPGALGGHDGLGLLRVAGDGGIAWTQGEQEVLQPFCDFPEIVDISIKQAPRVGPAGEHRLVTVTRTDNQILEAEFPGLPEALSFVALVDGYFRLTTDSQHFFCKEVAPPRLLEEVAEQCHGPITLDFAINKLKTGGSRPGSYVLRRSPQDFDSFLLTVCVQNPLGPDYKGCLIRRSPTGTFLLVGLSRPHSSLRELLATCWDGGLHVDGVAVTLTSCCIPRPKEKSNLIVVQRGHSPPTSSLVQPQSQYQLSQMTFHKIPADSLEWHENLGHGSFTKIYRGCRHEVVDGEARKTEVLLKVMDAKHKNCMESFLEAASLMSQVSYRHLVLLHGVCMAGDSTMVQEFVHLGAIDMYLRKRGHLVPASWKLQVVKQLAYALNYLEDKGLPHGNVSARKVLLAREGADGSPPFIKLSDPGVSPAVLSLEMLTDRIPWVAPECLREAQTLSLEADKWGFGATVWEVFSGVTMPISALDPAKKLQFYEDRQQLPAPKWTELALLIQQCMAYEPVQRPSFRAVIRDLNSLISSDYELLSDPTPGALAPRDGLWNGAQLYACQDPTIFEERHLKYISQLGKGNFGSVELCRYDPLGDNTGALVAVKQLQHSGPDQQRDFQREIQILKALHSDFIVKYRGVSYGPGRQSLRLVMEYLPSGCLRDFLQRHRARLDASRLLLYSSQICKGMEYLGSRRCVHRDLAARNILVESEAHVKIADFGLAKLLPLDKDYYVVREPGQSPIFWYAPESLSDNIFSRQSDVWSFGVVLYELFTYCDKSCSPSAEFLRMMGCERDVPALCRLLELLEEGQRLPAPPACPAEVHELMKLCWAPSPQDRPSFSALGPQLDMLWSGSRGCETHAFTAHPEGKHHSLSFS
The experiment in a line: Selectivity interaction (KinomeScan (DiscoverX)) EUB0000702a JAK3. The following applies: at 1 µM.

Assay [2] addresses Tyrosine-protein kinase SYK (Homo sapiens, UniProt P43405). The experiment in a line: Selectivity interaction (KinomeScan (DiscoverX)) EUB0000702a SYK. As to conditions: at 1 µM.
The target of the next assay is Aurora kinase B (Homo sapiens, UniProt Q96GD4). The experiment in a line: Selectivity interaction (KinomeScan (DiscoverX)) EUB0000702a AURKB. As to conditions: at 1 µM.
Aurora kinase B, sequence (Q96GD4 whole entry): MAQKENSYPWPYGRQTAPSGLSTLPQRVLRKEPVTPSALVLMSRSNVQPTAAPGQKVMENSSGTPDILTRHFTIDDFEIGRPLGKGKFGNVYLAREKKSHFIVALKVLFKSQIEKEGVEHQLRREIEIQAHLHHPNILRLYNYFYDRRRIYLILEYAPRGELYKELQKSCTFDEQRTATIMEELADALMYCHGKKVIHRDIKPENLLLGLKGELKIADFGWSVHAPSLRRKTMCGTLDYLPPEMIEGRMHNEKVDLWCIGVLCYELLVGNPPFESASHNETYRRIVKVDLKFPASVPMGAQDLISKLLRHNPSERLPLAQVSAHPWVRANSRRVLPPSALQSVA
For assay [3], the target named is Tyrosine-protein kinase JAK2 (Homo sapiens, UniProt O60674). The experiment in a line: Selectivity interaction (KinomeScan (DiscoverX)) EUB0000702a JAK2. As to conditions: at 1 µM.
Tyrosine-protein kinase JAK2, sequence (O60674 whole entry): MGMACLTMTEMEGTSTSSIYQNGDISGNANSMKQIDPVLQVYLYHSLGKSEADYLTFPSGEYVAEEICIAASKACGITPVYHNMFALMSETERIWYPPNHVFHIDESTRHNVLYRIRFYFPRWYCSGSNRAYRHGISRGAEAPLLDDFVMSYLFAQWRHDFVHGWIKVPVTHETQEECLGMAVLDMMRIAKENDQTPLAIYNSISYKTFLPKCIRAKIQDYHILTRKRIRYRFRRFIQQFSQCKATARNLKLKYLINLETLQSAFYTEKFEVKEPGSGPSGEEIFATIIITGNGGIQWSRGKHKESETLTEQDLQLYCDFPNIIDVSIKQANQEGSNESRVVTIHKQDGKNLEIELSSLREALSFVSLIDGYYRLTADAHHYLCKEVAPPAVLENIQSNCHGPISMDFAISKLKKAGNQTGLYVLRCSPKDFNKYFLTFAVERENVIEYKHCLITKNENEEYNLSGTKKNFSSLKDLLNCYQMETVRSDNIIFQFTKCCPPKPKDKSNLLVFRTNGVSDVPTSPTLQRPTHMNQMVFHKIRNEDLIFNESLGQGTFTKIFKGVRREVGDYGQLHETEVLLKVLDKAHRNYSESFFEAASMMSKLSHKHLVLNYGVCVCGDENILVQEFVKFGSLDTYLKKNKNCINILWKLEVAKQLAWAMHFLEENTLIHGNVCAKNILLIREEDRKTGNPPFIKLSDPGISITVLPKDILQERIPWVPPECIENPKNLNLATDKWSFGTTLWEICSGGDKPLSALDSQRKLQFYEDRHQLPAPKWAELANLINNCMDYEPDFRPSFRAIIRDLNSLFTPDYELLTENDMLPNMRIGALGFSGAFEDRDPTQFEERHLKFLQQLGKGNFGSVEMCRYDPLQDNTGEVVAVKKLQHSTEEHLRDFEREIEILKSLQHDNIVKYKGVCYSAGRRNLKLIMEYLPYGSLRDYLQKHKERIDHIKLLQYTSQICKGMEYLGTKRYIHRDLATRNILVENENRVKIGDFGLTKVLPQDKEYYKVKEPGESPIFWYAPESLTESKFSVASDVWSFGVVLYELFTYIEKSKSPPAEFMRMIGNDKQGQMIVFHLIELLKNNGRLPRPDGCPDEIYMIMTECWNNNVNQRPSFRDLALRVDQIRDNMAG
For assay [4], the target named is T2, Non-receptor tyrosine-protein kinase TYK2 (Homo sapiens, UniProt P29597). The assay can be described thus: Selectivity interaction (KinomeScan (DiscoverX)) EUB0000178b TYK2. As to conditions: at 1 µM.
T2 sequence (P29597 whole entry): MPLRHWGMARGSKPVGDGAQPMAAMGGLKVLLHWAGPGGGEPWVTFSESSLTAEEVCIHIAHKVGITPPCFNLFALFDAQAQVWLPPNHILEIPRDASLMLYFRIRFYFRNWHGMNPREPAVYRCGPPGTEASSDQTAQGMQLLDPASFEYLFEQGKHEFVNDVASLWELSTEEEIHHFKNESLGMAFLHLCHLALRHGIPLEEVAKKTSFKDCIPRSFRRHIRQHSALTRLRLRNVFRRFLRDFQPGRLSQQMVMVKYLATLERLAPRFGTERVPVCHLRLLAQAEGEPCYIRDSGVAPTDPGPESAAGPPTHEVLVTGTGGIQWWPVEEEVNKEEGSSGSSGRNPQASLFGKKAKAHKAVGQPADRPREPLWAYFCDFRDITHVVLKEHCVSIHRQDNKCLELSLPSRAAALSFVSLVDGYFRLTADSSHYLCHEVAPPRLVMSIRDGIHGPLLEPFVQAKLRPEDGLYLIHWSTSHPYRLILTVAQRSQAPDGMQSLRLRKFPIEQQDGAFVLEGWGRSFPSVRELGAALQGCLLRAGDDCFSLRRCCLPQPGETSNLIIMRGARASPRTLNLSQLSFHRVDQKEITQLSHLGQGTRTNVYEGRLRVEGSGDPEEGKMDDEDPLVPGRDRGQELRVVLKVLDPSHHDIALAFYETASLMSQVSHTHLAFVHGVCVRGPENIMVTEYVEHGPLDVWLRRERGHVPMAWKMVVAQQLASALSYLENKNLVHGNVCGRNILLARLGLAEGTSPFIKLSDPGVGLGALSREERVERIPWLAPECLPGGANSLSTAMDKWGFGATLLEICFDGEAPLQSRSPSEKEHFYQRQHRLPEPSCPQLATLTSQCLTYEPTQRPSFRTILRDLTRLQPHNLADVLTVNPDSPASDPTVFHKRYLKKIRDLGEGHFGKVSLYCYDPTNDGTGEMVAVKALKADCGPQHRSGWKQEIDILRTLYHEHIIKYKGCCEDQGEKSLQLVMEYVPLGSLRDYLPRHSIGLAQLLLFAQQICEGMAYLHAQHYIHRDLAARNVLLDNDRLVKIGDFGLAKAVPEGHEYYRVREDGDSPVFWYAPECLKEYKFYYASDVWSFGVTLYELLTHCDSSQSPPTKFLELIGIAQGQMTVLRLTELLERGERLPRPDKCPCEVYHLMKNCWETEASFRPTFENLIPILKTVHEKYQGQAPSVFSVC
In assay [5] the target is T2, Non-receptor tyrosine-protein kinase TYK2. The assay can be described thus: Selectivity interaction (KinomeScan (DiscoverX, competition-binding assay)) EUB0000178b TYK2.
Assay [6] addresses T3, Dual specificity mitogen-activated protein kinase kinase 5 (Homo sapiens) (UniProt Q13163).
T3 sequence (whole entry): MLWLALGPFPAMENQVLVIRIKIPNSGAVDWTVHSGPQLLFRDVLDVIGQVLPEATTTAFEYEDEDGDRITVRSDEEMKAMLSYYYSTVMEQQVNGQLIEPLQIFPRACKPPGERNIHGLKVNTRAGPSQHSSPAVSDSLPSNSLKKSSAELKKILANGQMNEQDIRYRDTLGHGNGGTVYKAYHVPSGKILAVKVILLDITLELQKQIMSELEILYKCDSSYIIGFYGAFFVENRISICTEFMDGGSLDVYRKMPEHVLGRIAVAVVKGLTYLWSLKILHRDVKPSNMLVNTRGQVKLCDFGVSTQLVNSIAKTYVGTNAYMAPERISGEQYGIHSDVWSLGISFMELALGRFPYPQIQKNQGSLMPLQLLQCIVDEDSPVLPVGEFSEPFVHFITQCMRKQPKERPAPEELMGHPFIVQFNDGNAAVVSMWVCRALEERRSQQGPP
The following applies: at 1 µM.

The target in assay [7] is Cyclin-dependent kinase 8 (Homo sapiens) (UniProt P49336). As to conditions: at 1 µM.
Cyclin-dependent kinase 8 (Homo sapiens), sequence (P49336 whole entry): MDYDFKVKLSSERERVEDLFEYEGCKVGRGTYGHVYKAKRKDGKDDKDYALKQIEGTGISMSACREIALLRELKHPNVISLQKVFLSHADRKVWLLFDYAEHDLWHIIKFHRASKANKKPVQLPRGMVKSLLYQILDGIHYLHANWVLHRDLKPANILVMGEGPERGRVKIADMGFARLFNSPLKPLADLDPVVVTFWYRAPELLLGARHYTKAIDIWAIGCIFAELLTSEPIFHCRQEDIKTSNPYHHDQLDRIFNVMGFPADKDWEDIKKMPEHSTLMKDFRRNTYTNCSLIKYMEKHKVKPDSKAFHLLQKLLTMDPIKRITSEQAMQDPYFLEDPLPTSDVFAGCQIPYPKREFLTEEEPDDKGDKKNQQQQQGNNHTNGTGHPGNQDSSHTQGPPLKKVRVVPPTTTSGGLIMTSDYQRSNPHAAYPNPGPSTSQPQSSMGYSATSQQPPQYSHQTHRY
Assay [8] deals with T4, Ephrin type-B receptor 6 (Homo sapiens) (UniProt O15197).
T4 sequence (whole entry): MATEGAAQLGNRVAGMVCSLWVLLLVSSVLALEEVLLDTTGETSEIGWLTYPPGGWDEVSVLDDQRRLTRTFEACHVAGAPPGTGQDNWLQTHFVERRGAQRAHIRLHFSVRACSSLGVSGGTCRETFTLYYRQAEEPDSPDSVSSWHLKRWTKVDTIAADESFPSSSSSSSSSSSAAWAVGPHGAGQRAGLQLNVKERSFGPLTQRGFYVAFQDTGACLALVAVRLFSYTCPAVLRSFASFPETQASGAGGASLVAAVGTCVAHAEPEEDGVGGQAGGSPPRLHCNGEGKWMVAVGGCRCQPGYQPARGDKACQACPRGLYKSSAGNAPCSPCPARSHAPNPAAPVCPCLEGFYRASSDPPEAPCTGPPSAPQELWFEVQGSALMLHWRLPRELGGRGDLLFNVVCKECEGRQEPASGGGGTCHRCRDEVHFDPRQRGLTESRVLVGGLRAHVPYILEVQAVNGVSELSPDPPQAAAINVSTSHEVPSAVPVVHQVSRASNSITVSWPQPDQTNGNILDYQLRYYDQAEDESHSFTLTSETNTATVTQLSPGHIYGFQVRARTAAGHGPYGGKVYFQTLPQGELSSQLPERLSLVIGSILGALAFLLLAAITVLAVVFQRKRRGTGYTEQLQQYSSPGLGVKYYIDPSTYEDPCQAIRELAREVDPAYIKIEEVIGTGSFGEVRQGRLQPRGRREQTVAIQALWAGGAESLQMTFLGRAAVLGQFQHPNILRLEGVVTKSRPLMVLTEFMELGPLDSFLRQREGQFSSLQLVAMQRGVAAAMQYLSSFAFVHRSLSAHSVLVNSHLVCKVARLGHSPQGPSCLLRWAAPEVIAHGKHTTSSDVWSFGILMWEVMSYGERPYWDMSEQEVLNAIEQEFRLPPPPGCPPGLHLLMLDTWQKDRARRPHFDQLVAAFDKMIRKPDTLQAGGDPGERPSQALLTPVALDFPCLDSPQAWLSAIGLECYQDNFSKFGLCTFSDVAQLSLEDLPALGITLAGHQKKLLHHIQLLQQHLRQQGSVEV
The assay can be described thus: Selectivity interaction (KinomeScan (DiscoverX)) EUB0000698a EPHB6. As to conditions: at 10 µM.

By Kd is commonly meant the concentration at which binding is half-saturated. Read a high Kd as lower affinity.

Consider `CN(c1ccnc(CNc2nc(Nc3ccc4c(c3)CC(=O)N4)ncc2C(F)(F)F)n1)S(C)(=O)=O` [PF-00911705], for which the % of control worked out at 1.9% in assay [1], 5.7% in [2], 9.9% at Aurora kinase B and 3.8% in [3].
`CN1C(=O)c2sccc2N(C)c2nc(Nc3ccc(S(N)(=O)=O)cc3)ncc21`: the % of control in [4] was found to be 2.7%. For the same compound, binding in assay [5] was characterised by a dissociation constant (Kd) of 610 nM.
In the case of `CCOc1cn(-c2ccc(F)cc2C)nc1C(=O)Nc1ccc(Oc2ccnc3cc(OC)c(OC)cc23)c(F)c1`, the % of control in [6] and in [7] was less than 10% each time.
`COc1cc2ncn(-c3cc(OCc4ccccc4C(F)(F)F)c(C(N)=O)s3)c2cc1OC` [GW843682X] registered a % of control in assay [8] of 9.9%.

The record behind these values is ChEMBL document CHEMBL5212743, “Selectivity Literature for EUbOPEN Chemogenomics Library wave 3” (2023).
